Results: ChEMBL document CHEMBL4765294, “Discovery and evaluation of new compounds targeting ribosomal protein S1 in antibiotic-resistant Mycobacterium Tuberculosis” (Eur J Med Chem, 2020)
Calls of active or inactive are those of the source. No cut-off for these calls is given here.

Assays:
[1] = Binding affinity to Mycobacterium tuberculosis RpsA C-terminal domain (285 to 476 residues) assessed as dissociation constant by fluorescence quenching titration based analysis
[2] = system: Mycobacterium tuberculosis; assay: Binding affinity to Mycobacterium tuberculosis 15N-labelled wild type RpsA (280 to 438 residues) by chemical shift perturbation based 15N-1H HSQC spectral analysis
[3] = system: Mycobacterium tuberculosis; assay: Binding affinity to Mycobacterium tuberculosis RpsA C-terminal domain (285 to 476 residues) at 500 uM by STD based analysis
[4] = system: Mycobacterium tuberculosis; assay: Binding affinity to Mycobacterium tuberculosis RpsA C-terminal domain (285 to 476 residues) assessed as quenching rate constant by fluorescence quenching titration based analysis

SMILES	Kd [1]	Activity [2]	Activity [3]	Kq [4]
CC(Sc1nc(N)cc(N)n1)C(=O)O (configuration not stated)	2.67 µM	–	–	–
Cc1cccc(CNC(=O)CSc2nc3nc[nH]c3c(=O)[nH]2)c1	2.67 µM	Active	Active	3.75 10^12/M/s
O=C(O)c1cnccn1 [PYRAZINOIC ACID]	9.65 µM	–	–	8.22 10^11/M/s
O=C(O)CSc1nc2nc[nH]c2c(=O)[nH]1	6.35 µM	Active	Active	1.79 10^12/M/s
Cc1cccc(CNC(=O)COc2cc(O)c3c(=O)cc(-c4ccccc4)oc3c2)c1	5.66 µM	Active	Active	1.94 10^12/M/s
Cc1ccc(CNC(=O)CSc2nc3nc[nH]c3c(=O)[nH]2)cc1	7.61 µM	Active	Active	4.09 10^12/M/s
CCOC(=O)CSc1nc2nc[nH]c2c(=O)[nH]1	0.81 µM	Active	Active	3.37 10^12/M/s
Cc1ccc(CNC(=O)COc2cc(O)c3c(=O)cc(-c4ccccc4)oc3c2)cc1	3.24 µM	Active	Active	6.45 10^12/M/s
